Where two headings read alike, the source gives them in different places.
What was measured:
SULT1A1 = SULT1A1 (Homo sapiens, UniProt P50225); test: SULT1A1 inhibition, 1-HP initial-rate assay; format: biochemical; details: ND = inhibition was not detected at 30 μM compound, parentheses one standard error; for inhibition: read-out: SULT1A1 Enzyme Inhibition at Saturation/%
Procedure: (§1) Inhibition studies. Inhibition parameters were determined under conditions identical to those described above (see, Initial-Rate Studies) except that [1-HP] was increased to 5.0 μM (˜61×Km) and inhibitor concentration was varied between 0.20-20×Ki. Ki was obtained using a least-squares fit to the following partial inhibition equation (25,28): v=kcat·(Ki+(1/kcat inh)·[I])/(Ki+[I]), where kcat inh is enzyme turnover at saturating substrates and allosteric inhibitor.
as §1, with “(47,50): V/Vax=(Ki+α·[I])/(Ki+[I]),” for “(25,28): v=kcat·(Ki+(1/kcat inh)·[I])/(Ki+[I]),”, “α” for “kcat inh”, “is percentage of” for “is”, “turnover remaining” for “turnover”

SULT1A3 [1] = target: T1, SULT1A3 (Homo sapiens, UniProt P0DMM9); test: SULT1A3 inhibition studies, 1-HP initial-rate fluorescence assay; format: biochemical; parameters: Wild-type and mutant SULT1A3 coding regions were inserted into a pGEX-6P expression vector; N-His/GST/MBP triple-tag (N, cleaved yes); made in house; host or cells: E. coli BL21(DE3); inhibition: dose or concentration left out as unconfirmed; details: for inhibition: read-out: SULT1A3 Enzyme Inhibition at Saturation/%
Procedure: The initial rates of SULT catalyzed 1-HP sulfonation are plotted as a function of inhibitor concentration, and are normalized relative to [inhibitor]=0. Enzyme activity was monitored by the sulfonation dependent change in 1-HP fluorescence (λex=325 nm, λem=370 nm). Less than 5% of the concentration-limiting substrate converted at the reaction endpoint was consumed during initial-rate measurements. Each point is the average of three independent determinations. Conditions: SULT (20 nM, active sites), PAPS (0.50 mM, 17×Km), 1-HP (5.0 μM, 61×Km), KPO4 (50 mM), pH 7.5, 25±2° C.
(§2) Initial-Rate Studies. Initial-rate parameters for the labeled or mutant SULT1A3 constructs were determined using a previously described 1-HP assay (25). Briefly, reactions were initiated by addition of PAPS (0.50 mM, 17×Km) to a solution containing enzyme (20 nM, active sites), 1-HP (2.0 μM, ˜24×Km), and KPO4 (50 mM), pH 7.5, 25±2° C. Reactions were monitored via fluorescence change associated with the conversion of 1-HP to 1-HP-S (λex=325 nm, λem=370 nm). Keq for the 1-HP sulfonation reaction is −250. Given the reaction conditions outlined above, ≥99% of 1-HP is converted to 1-HP-S, and ˜0.4% of PAPS is converted to PAP at equilibrium. […] Reaction progress curves were analyzed to obtain initial-rate parameters as described previously (26,27).
as §1
as §2, with “(47).” for “(25).”, “˜250.” for “−250.”, “(48,49).” for “(26,27).”
as §1, with “(47,50): V/Vax=(Ki+α·[I])/(Ki+[I]),” for “(25,28): v=kcat·(Ki+(1/kcat inh)·[I])/(Ki+[I]),”, “α” for “kcat inh”, “is percentage of” for “is”, “turnover remaining” for “turnover”

Green Monkey (1A3) = Green Monkey (1A3) (Chlorocebus sabaeus, UniProt Z9LO20H8W3); test: Inhibition of SULT1A3 homologues in different species: Green Monkey; format: biochemical
Procedure: (§3) Compounds 12, 23 and 25 were also tested for Inhibition of SULT1A3 in different species.
(§4) Inhibition of SULT1A3 Homologues in Different Species. SULT1A3 is only expressed in humans and higher primates. SULT1D1 is the isoform expressed in dogs and rodents that sulfonates neurotransmitters and is most similar to SULT1A3. Three synthesized allosteres (12, 23, and 25) were tested against both 1A3 and 1D1 from different species in order to explore testing in animal models. […] Mice have been engineered such that their SULT1A1/2 enzymes have been knocked out and replaced with the human versions of those isoforms.

Rhesus Macaque (1A3) = Rhesus Macaque (1A3) (Macaca mulatta, UniProt A0A5F7ZQH3); test: Inhibition of SULT1A3 homologues in different species: Rhesus Macaque; format: biochemical
Procedure: as §3, §4

Rat (1D1) = target: T2, Rat (1D1) (Rattus norvegicus, UniProt G3V9R3); test: Inhibition of SULT1A3 homologues in different species: Rat; format: biochemical
T2 sequence (G3V9R3 1-295): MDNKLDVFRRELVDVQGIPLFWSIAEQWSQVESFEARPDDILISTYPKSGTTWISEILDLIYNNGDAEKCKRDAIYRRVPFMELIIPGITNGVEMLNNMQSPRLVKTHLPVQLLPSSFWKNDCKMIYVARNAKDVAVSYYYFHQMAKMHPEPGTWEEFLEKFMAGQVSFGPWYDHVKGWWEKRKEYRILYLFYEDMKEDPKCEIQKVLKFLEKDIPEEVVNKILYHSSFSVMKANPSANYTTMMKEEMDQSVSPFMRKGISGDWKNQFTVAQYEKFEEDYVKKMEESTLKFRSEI
Procedure: as §3, §4

Dog (1D1) = Dog (1D1) (Canis lupus familiaris, UniProt A0A8I3RXJ1); test: Inhibition of SULT1A3 homologues in different species: Dog; format: biochemical
Procedure: as §4, with “Compounds 12, 23 and 25 were also tested for Inhibition of SULT1A3 in different species. Inhibition” for “Inhibition”

Mouse (1D1) = Mouse (1D1) (Mus musculus, UniProt Q3UZZ6); test: Inhibition of SULT1A3 homologues in different species: Mouse; format: biochemical
Procedure: as §3, §4

SULT1A3 [2] = target: T1, SULT1A3; test: Pre-steady state binding of PAP to SULT1A3 (stopped-flow fluorescence); parameters: Wild-type and mutant SULT1A3 coding regions were inserted into a pGEX-6P expression vector; N-His/GST/MBP triple-tag (N, cleaved yes); made in house; host or cells: E. coli BL21(DE3)
Procedure: The effect of CMP8 on PAP binding to SULT1A3 was monitored using a stopped-flow spectrofluorimeter (λex=290 nm, λem≥330 nm (cutoff filter)). […] Each kobs value was determined in triplicate and the averaged values are shown. kon and koff are given, respectively, by the slopes and intercepts obtained from linear least-squares fitting of the kobs vs [PAP] plots.
(§5) Pre-Steady State Binding Studies. The pre-steady state binding of PAP to SULT1A3 was monitored via ligand-induced enzyme fluorescence changes in SULT1A3 using an Applied Photophysics SX20 stopped-flow spectrofluorimeter (32). […] All reactions were pseudo first order in [PAP]. The observed rate constant (kobs) at a given [PAP] was taken as the average of three independent progress curves each obtained from a single-exponential fit of 6-9 averaged, binding progress curves. The rate constants, kon and koff, were obtained from the slopes and intercepts predicted by linear least-squares analysis of four-points kobs vs [PAP] plots.
Given that CMP8 interacts with the SULT1A3 cap, it was reasoned it might inhibit by stabilizing the cap-closed form(s) of the enzyme. To test this hypothesis, the microscopic rate constants for nucleotide binding and release were determined in the presence and absence of saturating CMP8. The binding reactions were monitored via intrinsic fluorescence changes associated with ligand binding (30-32) (see, Methods). The resulting kobs vs [PAP] plots are presented in FIG. 4. kon and koff are obtained, respectively, from the slopes and intercepts of the plots (30,31), see Table C. […] Thus, CMP8 does indeed slow nucleotide release by increasing Kiso and thus stabilizing the closed form of the cap.
as §5, with “(29).” for “(32).”

[3] = ND = inhibition was not detected at 30 μM compound, parentheses one standard error, read-out: SULT1A3 Ki/μM
[4] = saturating CMP8 (1.7 μM, 50×Kd)

Sequence of SULT1A1 (P50225 whole entry): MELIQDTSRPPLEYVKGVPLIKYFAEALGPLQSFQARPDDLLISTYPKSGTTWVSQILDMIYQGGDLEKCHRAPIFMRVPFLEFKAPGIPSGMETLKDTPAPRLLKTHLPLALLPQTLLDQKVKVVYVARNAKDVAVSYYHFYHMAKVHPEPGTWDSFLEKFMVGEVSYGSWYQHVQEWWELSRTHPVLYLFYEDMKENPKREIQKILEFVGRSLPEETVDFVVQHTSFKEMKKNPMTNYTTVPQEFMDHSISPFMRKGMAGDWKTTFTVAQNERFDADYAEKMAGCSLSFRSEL
T1 sequence (P0DMM9 whole entry): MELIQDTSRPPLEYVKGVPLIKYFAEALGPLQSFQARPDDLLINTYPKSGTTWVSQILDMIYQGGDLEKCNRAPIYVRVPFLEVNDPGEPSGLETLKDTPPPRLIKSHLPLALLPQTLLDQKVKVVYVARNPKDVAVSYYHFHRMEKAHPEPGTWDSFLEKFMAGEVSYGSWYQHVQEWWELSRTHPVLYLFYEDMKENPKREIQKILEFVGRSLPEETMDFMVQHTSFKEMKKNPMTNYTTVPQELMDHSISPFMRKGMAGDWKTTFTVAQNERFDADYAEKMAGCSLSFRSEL
Sequence of Rhesus Macaque (1A3) (A0A5F7ZQH3 1-295): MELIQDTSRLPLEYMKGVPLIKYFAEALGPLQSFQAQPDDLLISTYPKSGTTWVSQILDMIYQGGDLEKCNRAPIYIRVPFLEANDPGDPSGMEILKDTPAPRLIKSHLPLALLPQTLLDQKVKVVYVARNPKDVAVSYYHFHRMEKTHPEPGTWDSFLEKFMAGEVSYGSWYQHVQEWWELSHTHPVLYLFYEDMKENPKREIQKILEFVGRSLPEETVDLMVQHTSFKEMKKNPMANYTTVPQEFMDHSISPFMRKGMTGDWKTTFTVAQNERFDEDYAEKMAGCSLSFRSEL
Sequence of Green Monkey (1A3) (Z9LO20H8W3 1-295): as the sequence (A0A5F7ZQH3 1-295) above, with T7A, M15V, Y23C, K230R, F247Y, E278A counted along it
Sequence of Dog (1D1) (A0A8I3RXJ1 entry or part of it): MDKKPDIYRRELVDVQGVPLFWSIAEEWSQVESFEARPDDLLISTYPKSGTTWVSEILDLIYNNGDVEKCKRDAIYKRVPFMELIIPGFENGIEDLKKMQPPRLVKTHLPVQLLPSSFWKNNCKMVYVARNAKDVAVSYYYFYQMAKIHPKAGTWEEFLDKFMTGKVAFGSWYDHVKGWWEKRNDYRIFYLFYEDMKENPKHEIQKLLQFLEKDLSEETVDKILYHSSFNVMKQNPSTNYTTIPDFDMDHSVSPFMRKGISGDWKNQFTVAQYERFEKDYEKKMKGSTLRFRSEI
Sequence of Mouse (1D1) (Q3UZZ6 whole entry): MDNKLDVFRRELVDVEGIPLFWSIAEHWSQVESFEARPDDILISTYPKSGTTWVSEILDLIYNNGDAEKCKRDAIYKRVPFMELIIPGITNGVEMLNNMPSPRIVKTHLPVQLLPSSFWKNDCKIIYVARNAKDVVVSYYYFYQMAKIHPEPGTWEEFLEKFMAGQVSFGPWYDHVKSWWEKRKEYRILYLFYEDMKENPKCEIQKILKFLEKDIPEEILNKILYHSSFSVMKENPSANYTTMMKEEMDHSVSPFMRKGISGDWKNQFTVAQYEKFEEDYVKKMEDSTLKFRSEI

| Ki (SULT1A1) | inhibition (SULT1A1) | Ki (SULT1A3 [1]; [3]) | inhibition (SULT1A3 [1]; parentheses one standard error) | SMILES | also measured |
| --- | --- | --- | --- | --- | --- |
| 5.7 µM | 10% | 6.1 µM | 10% | COCc1ccc2nc(CC(C)C)ccc2c1 [Compound 3, 2-Isobutyl-6-(methoxymethyl)quinolone] | – |
| 7.7 µM | 20% | 7.5 µM | – | Cc1nc2ccc(CO)cc2cc1CC(C)C [Compound 4] | – |
| 4.7 µM | 53% | 3.1 µM | 33% | CCCn1cc(-c2ccc3ncccc3c2)nn1 [Compound 5, 6-(1-Propyl-1H-1,2,3-triazol-4-yl)quinoline] | – |
| – | – | 0.66 µM | 35% | COC(=O)c1ccc2nc3c(cc2c1)C(=O)CC(C)C3 (centres unmarked) [Compound 6, Methyl 6-methyl-8-oxo-5,6,7,8-tetrahydroacridine-2-carboxylate] | – |
| 5.1 µM | 67% | 1.3 µM | 51% | CCCCNC(=O)c1ccc2nc(CC(C)C)ccc2c1 [Compound 7, N-Butyl-2-isobutylquinoline-6-carboxamide] | – |
| – | – | 0.33 µM | 63% | CCOC(=O)CCc1ccc2cc(CCC(N)=O)ccc2n1 [Compound 9, Ethyl 3-(6-(3-amino-3-oxopropyl)quinolin-2-yl)propanoate] | – |
| 22 µM | 30% | 4.1 µM | 72% | O=C(O)/C=C/c1ccc2ncccc2c1 [Compound 10, (E)-3-(quinolin-6-yl)acrylic acid] | – |
| – | – | 0.86 µM | 78% | CC(C)Cc1ccc2cc(C(N)=O)ccc2n1 [Compound 11, 2-Isobutylquinoline-6-carboxamide] | – |
| 6.2 µM | 48% | 0.19 µM | 65% | CC(C)Cc1ccc2cc(/C=C/C(N)=O)ccc2n1 [Compound 13, (E)-3-(2-Isobutylquinolin-6-yl)acrylamide] | – |
| 2.5 µM | 40% | – | – | CC(C)(C)Cc1ccc2cc(CO)ccc2n1 [Compound 18] | – |
| 12.1 µM | 17% | 2.6 µM | 16% | CCCn1cc(-c2ccc3ccc(O)cc3c2)nn1 [Compound 20] | – |
| – | – | 3.1 µM | 29.4% | CC(C)Cc1ccc2cc(/C=C/C(=O)O)cnc2n1 [Compound 24, (E)-3-(7-Isobutylnaphthyridin-3-yl)acrylic acid] | – |
| – | – | 0.017 µM | 90% | CC(C)Cc1ccc2cc(CCC(N)=O)cnc2n1 [Compound 25] | Green Monkey (1A3) % inh (Green Monkey (1A3)): 72 (5) %; Ki (Green Monkey (1A3); parentheses one standard error): 87 nM; Rhesus Macaque (1A3) % inh (Rhesus Macaque (1A3)): 95 (2) %; Ki (Rhesus Macaque (1A3); parentheses one standard error): 25 nM; Rat (1D1) % inh (Rat (1D1)): 21 (3) %; Ki (Rat (1D1); parentheses one standard error): 1100 nM; Human (1A3) % inh (SULT1A3 [1]; parentheses one standard error): 90 (3) %; Ki (SULT1A3 [1]; standard error in neighbouring cell, read-out: Human (1A3) Ki): 0.017 µM; Dog (1D1) % inh (Dog (1D1)): 73 (4) %; Ki (Dog (1D1); standard error in neighbouring cell): 52 nM; Mouse (1D1) % inh (Mouse (1D1)): 91 (2) %; Ki (Mouse (1D1); parentheses one standard error): 32 nM |
| – | – | 0.11 µM | 75% | CC1CC(=O)c2cc3cc(C(N)=O)ccc3nc2C1 (centres unmarked) [Compound 27, 6-Methyl-8-oxo-5,6,7,8-tetrahydroacridine-2-carboxamide] | – |
| – | – | 0.085 µM | 52% | CC1Cc2nc3ccc(C(N)=O)cc3cc2C(O)C1 (centres unmarked) [Compound 28, 8-Hydroxy-6-methyl-5,6,7,8-tetrahydroacridine-2-carboxamide] | – |
| – | – | – | – | Nc1ncnc2c1ncn2[C@@H]1O[C@H](COP(=O)(O)O)[C@@H](OP(=O)(O)O)[C@H]1O [PAP] | koff (s^−1), (−) CMP8 (SULT1A3 [2]; nucleotide binding to SULT1A3 without CMP8): 2.7 (0.1) s^−1; kon (μM^−1s^−1), (−) CMP8 (SULT1A3 [2]; nucleotide binding to SULT1A3 without CMP8, parentheses standard error): 6.6 (0.2)^a μM^−1s^−1; koff (s^−1), (+) CMP8 (SULT1A3 [2]; [4]): 1.1 (0.1) s^−1; kon (μM^−1s^−1), (+) CMP8 (SULT1A3 [2]; [4]): 6.3 (0.3) μM^−1s^−1 |

Source: patent publication US12291504B2 (University of Pittsburgh—Of the Commonwealth System of …, priority 2018, dated 2025)
